Reference: patent publication US7001746B1, “Methods and compositions for the differentiation of human preadipocytes into adipocytes” (Artecel Sciences, Inc., priority 1999, dated 2006)

Assays:
human preadipocytes [1] = experiment: Differentiation of human preadipocytes to adipocytes, Oil Red O staining (Example 2); type: cell-based; details: Adipocyte, in differentiation medium, read-out: concentration that allows for half maximal stimulation of differentiation
Procedure: Preadipocytes from the stroma-vascular fraction were resuspended in preadipocyte medium (DME-Ham's F-10, 1:1 (v/v), 10% FBS, and penicillin-streptomycin-fungizone) and plated at 25,000 cells/well in each of the wells of a 96 well plate (150 μl/well). The cells were then placed in a 37° C. 5% CO2 incubator and allowed to settle overnight. The following day, all of the medium was removed and replaced with 150 μl differentiation medium (Dulbecco's Modified Eagle Medium/Ham's F-10 Nutrient Broth (1:1, vol/vol), 15 mM HEPES buffer, pH 7.4, 33 μM biotin, 17 μM pantothenate, 0.2 mM isobutylmethylxanthine, 100 nM insulin, 1 μM dexamethasone, 1 μM BRL 49653 (diluted into medium from a 100× DMSO stock solution), 10% (vol/vol) fetal bovine serum, 60 U/l streptomycin, 60 U/l penicillin and 25 μg/l Fungizone). The cells were maintained on differentiation medium for 3 days. Additional differentiation medium was added as necessary to maintain the proper volume.
120 μl of the medium was removed, taking care to leave a 30 μl layer over the cell surface to prevent the maturing adipocytes from lifting off of the plate surface due to the surface tension created by removal of all the fluid. […]
(§1) Isopropanol (100 μl/well) was then added and the plate was incubated at room temperature for 10 minutes. […] The optical density was measured at 500 nm. […]

human preadipocytes [2] = details: 1 μM BRL49653
Procedure: The following procedure was used to determine the amount of lipid that had accumulated in the adipocytes. 120 μl/well of medium was removed from each well of the 96-well plates. Care was taken to prevent drying of the wells. 100 μl/well fixer solution (7% formaldehyde in PBS) was added and the plate was incubated at room temperature for at lease 2 hours. Oil Red O working solution was prepared by adding 4 ml distilled water to 6 ml Oil Red O stock solution (1% Oil Red O in isopropanol). The working solution was incubated for 20 minutes at room temperature and then filtered through Nalgene 0.8 μm filter wear. All of the fixer was removed by aspiration until wells were completely dry.
The cells were then incubated with 40 μl/well Oil Red O working solution at room temperature for 10-15 minutes. Care was taken not to touch the sides of the wells in order to prevent high background due to dye stuck on the wall of the well. The plate was covered during incubation to prevent evaporation. Following this incubation, all of the Oil Red O solution was removed and the cells were washed four times with 200 μl/well distilled water. […]
as §1

[3] = test system: differentiated adipocytes; experiment: Lipolysis in differentiated human adipocytes, glycerol release (Example 5); type: cell-based; details: increasing concentrations, 4 hours, adipocytes from five patients; FIG. 6
Procedure: Preadipocytes from 5 individual patients were isolated and differentiated into adipocytes as described herein. A 96-well plate of adipocytes differentiated by the method in Example 1 was prepared. After 21 days from plating, the cells were washed in Krebs-Ringer buffer and treated with increasing concentrations of isoproterenol. The positive and negative controls (0.5 μM isoproterenol in KRB and KRB alone, respectively) were added in duplicate. The plates were then incubated at 37° C. for four hours.
When lipolytic agents stimulate adipocytes, triglycerides are converted to glycerol and fatty acids. Lipolytic rate was measured in this example by measuring the glycerol released in the medium. At the end of the incubation time, conditioned medium (100 μl) from each well was transferred into a new plate. Glycerol standards (1 mM, 0.5 mM, 0.25 mM, 0.1 mM, 0.05 mM, 0.025 mM, 0 mM) were included.
Glycerol assay reagent (100 μl; Sigma glycerol assay kit) was added to each well. The solutions were mixed well and incubated at room temperature for 15 minutes and then the optical density of each well was read at 540 nm.

Row | SMILES | EC50 (human preadipocytes [1]) [nM] | differentiation (human preadipocytes [2]) [%] | stimulation of lipolysis (glycerol release) [3]
1 | CN(CCOc1ccc(CC2SC(=O)NC2=O)cc1)c1ccccn1 (stereo not drawn) [BRL49653] | 50 | 100 | –
2 | CC(C)NCC(O)c1ccc(O)c(O)c1 (stereo not drawn) [isoproterenol] | – | – | dose-dependently stimulate lipolysis
